Measurements taken from patent publication US5958886A, “Carnitine-containing peptides and a method for using the same” (Sigma-Tau Pharmaceuticals, Inc., priority 1998, dated 1999).
Non-standard residues stand in square brackets, D forms with d. Residues, ends and D or L forms follow the SMILES beside them. Sar = CNCC(=O)O

How the values were obtained:
peptide carrier = target: T1, peptide carrier (Homo sapiens, UniProt P46059); test: Inhibition of glycyl-sarcosine transport via the peptide carrier in Caco-2 cells; assay type: cell-based
T1 construct: endogenous in cells; host or cells: Caco-2 cells
T1 sequence (P46059 1-708): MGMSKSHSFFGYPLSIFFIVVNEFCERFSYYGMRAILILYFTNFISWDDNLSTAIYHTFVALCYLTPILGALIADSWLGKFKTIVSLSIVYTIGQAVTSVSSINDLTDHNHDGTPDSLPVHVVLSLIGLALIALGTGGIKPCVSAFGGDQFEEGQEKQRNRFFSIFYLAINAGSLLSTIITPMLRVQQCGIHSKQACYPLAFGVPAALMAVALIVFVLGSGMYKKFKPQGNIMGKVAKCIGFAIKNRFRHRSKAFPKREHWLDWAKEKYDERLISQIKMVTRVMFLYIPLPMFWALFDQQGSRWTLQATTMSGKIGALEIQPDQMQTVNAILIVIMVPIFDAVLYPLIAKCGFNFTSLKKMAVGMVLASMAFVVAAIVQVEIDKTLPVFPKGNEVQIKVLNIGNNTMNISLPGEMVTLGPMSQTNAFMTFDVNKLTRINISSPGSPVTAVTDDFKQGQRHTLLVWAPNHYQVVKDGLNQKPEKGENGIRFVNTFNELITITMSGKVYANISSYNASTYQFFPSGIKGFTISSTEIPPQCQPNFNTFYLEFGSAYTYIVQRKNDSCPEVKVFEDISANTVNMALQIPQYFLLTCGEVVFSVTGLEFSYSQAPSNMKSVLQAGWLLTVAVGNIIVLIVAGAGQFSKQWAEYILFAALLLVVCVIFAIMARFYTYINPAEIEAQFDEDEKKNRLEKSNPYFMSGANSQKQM
Excerpt: Carnityl-alanyl-alanine (CAA) is a peptide derivative of carnitine. In this experiment, the ability of CAA to compete with glycyl-sarcosine for transport via the peptide carrier was studied in Caco-2 cells. These cells are a good model system for the human intestine and they express the peptide carrier as does the human intestine. Glycyl-sarcosine is a standard substrate for the peptide carrier. If CAA is taken up by the peptide carrier it is expected to compete with glycyl-sarcosine for transport via the carrier and thus inhibit the transport.

[1] = target: T2, peptide carrier from human intestine (Homo sapiens, UniProt P46059); test: Charge transfer in Xenopus oocytes expressing the peptide carrier from human intestine (electrophysiological approach); assay type: cell-based; details: Xenopus oocytes expressing human intestinal peptide carrier; exposure to 10 mM
T2 construct: expressed in transfected cells; host or cells: Xenopus oocytes injected with peptide transporter mRNA
T2 sequence (P46059 1-708): T1 sequence (P46059 1-708)
Excerpt: In this experiment, Xenopus (frog) oocytes which were made to express the peptide carrier from human intestine by injection of its peptide transporter mRNA were used to study the transport of CAA via the carrier. The peptide carrier uses the energy from a proton gradient and peptide transport via the carrier leads to a transfer of positive charge into the oocytes. This charge transfer can be monitored using the electrophysiological approach. If CAA is transported via the peptide carrier, exposure of the oocytes to CAA is expected to result in the transfer of positive charge.

Compound | inhibition of glycyl-sarcosine transport (in words) (peptide carrier; Caco-2 cells, under similar conditions) | charge transfer into oocytes (in words) [1] | inhibition of the transport of glycylsarcosine (peptide carrier; Caco-2 cells, at 10 mM) [%] | inhibition of the transport of glycylsarcosine (peptide carrier; Caco-2 cells, at 20 mM) [%] | affinity for the intestinal peptide carrier (peptide carrier; concluded from the Caco-2 and oocyte experiments)
C[N+](C)(C)CC(O)CC(=O)[O-] (stereo not drawn) [Free carnitine, Carnitine] | does not inhibit | – | – | – | –
CN(CC(=O)O)C(=O)CN [glycyl-sarcosine, Glycyl-sarcosine, reference compound] (H-Gly-[Sar]-OH) | – | charge transfer found | – | – | –
Carnityl-alanyl-alanine [CAA] | – | induced charge transfer | 35 | 80 | millimolar range
